# Measured values published in paper PMC10937574, “Modification of 4-(4-chlorothiophen-2-yl)thiazol-2-amine derivatives for the treatment of analgesia and inflammation: synthesis and in vitro, in vivo, and in silico studies” (Frontiers in Pharmacology, 2024).
# “And” between values parts separate entries of the source, which are not always exact repeats. Equal entries are not always repeated. Where two headings read alike, the source gives them in different places.
# Key:
# 5-LOX enzyme = assay: 5-LOX activity (5-lipoxygenase inhibition, linoleic acid substrate, absorbance 234 nm); conditions: read-out: IC50 ± SEM 5-LOX
# [1] = tested on: histamine-induced paw edema; assay: Histamine-induced paw edema; type: in vivo, mouse; conditions: 20 mg/kg, at 3 h
# [2] = tested on: carrageenan-induced paw edema; assay: Carrageenan-induced paw edema; type: in vivo, albino mice
# [3] = tested on: bradykinin-induced paw edema; assay: Bradykinin-induced paw edema; type: in vivo, mouse; conditions: 20 mg/kg, first hour
# Description: (§1) It was done by injecting 10% DMSO, a Bradykinin inhibitor (HOE 140) at a dose of 1 mg/kg, a lipoxygenase inhibitor (montelukast) at a dose of 25 mg/kg, an antihistamine at a dose of 100 mg/kg, […], or a cyclooxygenase inhibitor (celecoxib) at a dose of 50 mg/kg.
# [4] = tested on: leukotriene-induced paw edema; assay: Leukotriene-induced paw edema; type: in vivo, mouse; conditions: for percentage inhibition of leukotriene-induced paw edema: 20 mg/kg
# Description: as §1
# [5] = tested on: prostaglandin E2-induced paw edema; assay: Prostaglandin E2-induced paw edema; type: in vivo, mouse
# Description: It was done by injecting 10% DMSO, a Bradykinin inhibitor (HOE 140) at a dose of 1 mg/kg, a lipoxygenase inhibitor (montelukast) at a dose of 25 mg/kg, an antihistamine at a dose of 100 mg/kg, the tested compound at a dose of 100 mg/kg, or a cyclooxygenase inhibitor (celecoxib) at a dose of 50 mg/kg.
compound,measurement,setting,value
CCNc1nc(-c2cc(Cl)cs2)c(Nc2ccccc2)s1 [Compound 5f],IC50,5-LOX enzyme,56.21 ± 0.15 µM
CCNc1nc(-c2cc(Cl)cs2)c(N2CCN(C)CC2)s1 [Compound 5c],IC50,5-LOX enzyme,72.32 ± 0.11 µM
Clc1csc(-c2nc(NCc3ccccc3)sc2Nc2ccccc2)c1 [Compound 5e],IC50,5-LOX enzyme; listed as C00005,38.45 ± 0.2 µM
same,antihistaminic effect (suppression of histamine-induced paw edema),[1],35%
same,Percent inhibition of paw edema,"[2]; dose 5 mg/kg, 1 h",47.70 ± 1.68 %
same,Percent inhibition of paw edema,"[2]; dose 5 mg/kg, 2 h",51.47 ± 1.50 %
same,Percent inhibition of paw edema,"[2]; dose 5 mg/kg, 3 h",54.56 ± 1.34 %
same,Percent inhibition of paw edema,"[2]; dose 5 mg/kg, 4 h",53.35 ± 1.47 %
same,Percent inhibition of paw edema,"[2]; dose 5 mg/kg, 5 h",56.25 ± 1.65 %
same,Percent inhibition of paw edema,"[2]; dose 10 mg/kg, 1 h",52.36 ± 2.26 %
same,Percent inhibition of paw edema,"[2]; dose 10 mg/kg, 2 h",54.58 ± 2.58 %
same,Percent inhibition of paw edema,"[2]; dose 10 mg/kg, 3 h",57.59 ± 1.59 %
same,Percent inhibition of paw edema,"[2]; dose 10 mg/kg, 4 h",56.78 ± 2.66 %
same,Percent inhibition of paw edema,"[2]; dose 10 mg/kg, 5 h",62.65 ± 2.79 %
same,Percent inhibition of paw edema,"[2]; dose 20 mg/kg, 1 h",55.29% and 55.29 ± 1.04 %
same,Percent inhibition of paw edema,"[2]; dose 20 mg/kg, 2 h",57.39 ± 1.69 %
same,Percent inhibition of paw edema,"[2]; dose 20 mg/kg, 3 h",60.76 ± 2.68 %
same,Percent inhibition of paw edema,"[2]; dose 20 mg/kg, 4 h",59.08 ± 1.98 %
same,Percent inhibition of paw edema,"[2]; dose 20 mg/kg, 5 h",64.59% and 64.59 ± 1.49 %
same,inhibition of bradykinin-induced paw swelling,[3],21.30%
same,percentage inhibition of leukotriene-induced paw edema,[4]; fourth hour,69.84%
"CC(=O)Oc1ccccc1C(=O)O [Aspirin, reference compound]",Percent inhibition of paw edema,"[2]; dose 50 mg/kg, 1 h",48.52 ± 1.12 %
same,Percent inhibition of paw edema,"[2]; dose 50 mg/kg, 2 h",54.63 ± 1.47 %
same,Percent inhibition of paw edema,"[2]; dose 50 mg/kg, 3 h",55.22 ± 1.38 %
same,Percent inhibition of paw edema,"[2]; dose 50 mg/kg, 4 h",58.92 ± 1.95 %
same,Percent inhibition of paw edema,"[2]; dose 50 mg/kg, 5 h",59.60 ± 1.52 %
same,Percent inhibition of paw edema,"[2]; dose 50 mg/kg, 5 h, listed as aspirin",59.60%
C#CCNc1nc(-c2cc(Cl)cs2)c(Nc2ccccc2)s1 [Compound 5g],IC50,5-LOX enzyme,83.11 ± 0.16 µM
"CC(C)(O)c1ccccc1CC[C@@H](SCC1(CC(=O)O)CC1)c1cccc(/C=C/c2ccc3ccc(Cl)cc3n2)c1 [montelukast, reference compound]",percentage reduction of leukotriene-induced paw edema,"[4]; montelukast 25 mg/kg, fourth hour",72.79 ± 1.10%
Nc1nc(-c2cc(Cl)cs2)c(N2CCNCC2)s1 [Compound 5a],IC50,5-LOX enzyme,93.15 ± 0.07 µM
"Cc1ccc(-c2cc(C(F)(F)F)nn2-c2ccc(S(N)(=O)=O)cc2)cc1 [Celecoxib, reference compound]",reduction of prostaglandin E2-induced paw edema,"[5]; celecoxib 50 mg/kg, 4th hour after inflammogen",88%
CCNc1nc(-c2cc(Cl)cs2)c(N2CCNCC2)s1 [Compound 5b],IC50,5-LOX enzyme,98.26 ± 0.08 µM
CN1CCN(c2sc(NCc3ccccc3)nc2-c2cc(Cl)cs2)CC1 [Compound 5d],IC50,5-LOX enzyme,23.08 ± 0.18 µM
same,antihistaminic effect (suppression of histamine-induced paw edema),[1],27.12%
same,Percent inhibition of paw edema,"[2]; dose 5 mg/kg, 1 h",45.47 ± 1.11%
same,Percent inhibition of paw edema,"[2]; dose 5 mg/kg, 2 h",48.10 ± 1.42 %
same,Percent inhibition of paw edema,"[2]; dose 10 mg/kg, 1 h",49.68 ± 1.44%
same,Percent inhibition of paw edema,"[2]; dose 20 mg/kg, 5 h",61.64 ± 1.10%
same,inhibition of prostaglandin E2-induced paw edema,"[5]; 20 mg/kg, fourth hour",76.56 ± 0.58
same,inhibition of bradykinin-induced paw swelling,[3],9.20%
same,percentage inhibition of leukotriene-induced paw edema,[4]; fifth hour (fifth of five values),59.90 ± 0.68%
same,percentage inhibition of leukotriene-induced paw edema,[4]; first hour (first of five values),51.80 ± 0.58%
same,percentage inhibition of leukotriene-induced paw edema,[4]; fourth hour,64.56 ± 0.78%
same,percentage inhibition of leukotriene-induced paw edema,[4]; second hour (second of five values),55.90 ± 0.66%
same,percentage inhibition of leukotriene-induced paw edema,[4]; third hour (third of five values),59.46 ± 0.52%
